The target in assay [1] is T1, USP16-UBD (USP16 25-185) (Homo sapiens, UniProt Q9Y5T5). The assay is described as follows: SPR, steady state. Type of assay: binding.
Assay [2] deals with T2, HDAC6-UBD (HDAC6 1109-1215) (Homo sapiens, UniProt Q9UBN7).
T2 sequence (Q9UBN7 1109-1215): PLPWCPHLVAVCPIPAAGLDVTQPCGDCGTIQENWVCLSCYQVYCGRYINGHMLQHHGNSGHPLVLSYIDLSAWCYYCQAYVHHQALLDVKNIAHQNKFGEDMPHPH
The assay is described as follows: SPR, steady state. In kind it is binding.

The target in assay [3] is T2, HDAC6-UBD (HDAC6 1109-1215). The experiment in a line: SPR, steady state. In kind it is binding. Conditions: pH […] °C, […] DMSO.
For assay [4], the target named is T1, USP16-UBD (USP16 25-185). The experiment in a line: SPR, steady state. The following applies: pH […] °C, […] DMSO. In kind it is binding.
For assay [5], the target named is T1, USP16-UBD (USP16 25-185). The experiment in a line: biochemical. Further details: SPR, steady-state binding to immobilised biotinylated UBD proteins. Conditions: read-out: SPR Kd µM (USP16).
The target in assay [6] is T2, HDAC6-UBD (HDAC6 1109-1215). The assay is described as follows: biochemical. Further details: SPR, steady-state binding to immobilised biotinylated UBD proteins. The following applies: read-out: SPR Kd µM (HDAC6).

T1 sequence (Q9Y5T5 25-185): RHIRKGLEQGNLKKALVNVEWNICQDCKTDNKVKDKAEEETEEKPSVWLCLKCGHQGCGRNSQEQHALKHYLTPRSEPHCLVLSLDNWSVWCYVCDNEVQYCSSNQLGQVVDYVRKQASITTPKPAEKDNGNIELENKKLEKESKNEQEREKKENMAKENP

On to `COc1ccccc1C(C)NC(=O)Cn1c(CCC(=O)O)nc2c(Cl)cccc2c1=O` (stereo not shown) [compound 3, 3-(8-chloro-3-(2-((1-(2-methoxyphenyl)ethyl)amino)-2-oxoethyl)-4-oxo-3,4-dihydroquinazolin-2-yl)propanoic acid], for which the Kd is 440 nM on USP16-UBD (USP16 25-185) [1] and 50 ± 30 nM in assay [2].

Take `COc1ccccc1C(C)N(C)C(=O)Cn1c(CCC(=O)O)nc2c(Cl)cccc2c1=O` (stereo not shown) [compound 4, 3-(8-chloro-3-(2-((1-(2-methoxyphenyl)ethyl)(methyl)amino)-2-oxoethyl)-4-oxo-3,4-dihydroquinazolin-2-yl)propanoic acid]: the KD result was “complete loss of binding activity for both USP16-UBD and HDAC6-UBD” in assay [3]; “complete loss of binding activity for both USP16-UBD and HDAC6-UBD” at USP16-UBD (USP16 25-185) [4].

`CCOc1ccccc1CNC(=O)Cn1c(CCC(=O)O)nc2c(Cl)cccc2c1=O` [compound 7, 3-(8-chloro-3-(2-((2-ethoxybenzyl)amino)-2-oxoethyl)-4-oxo-3,4-dihydroquinazolin-2-yl)propanoic acid]: the Kd at USP16-UBD (USP16 25-185) [1] was 2900 ± 1200 nM; in assay [2] it was 650 ± 270 nM.

For `COc1ccccc1CNC(=O)Cn1c(CCC(=O)O)nc2c(F)cccc2c1=O` [UBXXML299], the Kd on USP16-UBD (USP16 25-185) [5] was 11 µM.

Turning to `C[C@@H](c1ccccc1F)N(C)C(=O)Cn1c(CCC(=O)O)nc2c(Cl)cccc2c1=O` [compound 13, (S)-3-(8-Chloro-3-(2-((1-(2-fluorophenyl)ethyl)(methyl)amino)-2-oxoethyl)-4-oxo-3,4-dihydroquinazolin-2-yl)propanoic Acid], the Kd was determined as 2900 ± 490 nM at USP16-UBD (USP16 25-185) [1] and 31300 ± 2500 nM in assay [2].

Regarding `O=C(O)CCc1nc2ccccc2c(=O)n1CC(=O)NCc1ccccc1` [UBXXML47], at USP16-UBD (USP16 25-185) [5], the Kd came to 11 µM.

Regarding `O=C(O)CCc1nc2c(Cl)cccc2c(=O)n1CC(=O)NCc1ccccc1F` [compound 10], binding at USP16-UBD (USP16 25-185) [1] was put at a Kd of 400 ± 150 nM.

On to `O=C(O)CCc1nc2c(Cl)cccc2c(=O)n1CC(=O)NCC1CCCOC1` (stereo not shown) [compound 6, 3-(8-Chloro-4-oxo-3-(2-oxo-2-(((tetrahydro-2H-pyran-3-yl)methyl)amino)ethyl)-3,4-dihydroquinazolin-2-yl)propanoic Acid], for which the Kd at USP16-UBD (USP16 25-185) [1] was determined as 7800 ± 990 nM; in assay [2], 2100 ± 70 nM.

On to `O=C(O)CCc1nc2c(Cl)cccc2c(=O)n1CC(=O)NCc1ccccc1Cl` [compound 9], for which the affinity at USP16-UBD (USP16 25-185) [1], expressed as Kd, was 1200 ± 600 nM.

Turning to `Cn1c(CCC(=O)O)nc2ccccc2c1=O` [DATR31], the results for the Kd (at USP16-UBD (USP16 25-185) [5]; in assay [6]) were 130 µM and 2.7 µM, respectively.

`COc1ccccc1CN(C)C(=O)Cn1c(CCC(=O)O)nc2c(Cl)cccc2c1=O` [compound 2]: at USP16-UBD (USP16 25-185) [1], the Kd stood at 5600 ± 2100 nM.

`CN(Cc1ccccc1F)C(=O)Cn1c(CCC(=O)O)nc2c(Cl)cccc2c1=O` [compound 11, 3-(8-Chloro-3-(2-((2-fluorobenzyl)(methyl)amino)-2-oxoethyl)-4-oxo-3,4-dihydroquinazolin-2-yl)propanoic Acid]: the Kd at USP16-UBD (USP16 25-185) [1] was 2500 ± 340 nM; in assay [2] it was 32300 ± 18200 nM.

On USP16-UBD (USP16 25-185) [1], `CC(NC(=O)Cn1c(CCC(=O)O)nc2c(Cl)cccc2c1=O)c1c(F)cccc1F` (stereo not shown) [compound 14, 3-(8-chloro-3-(2-((1-(2,6-difluorophenyl)ethyl)amino)-2-oxoethyl)-4-oxo-3,4-dihydroquinazolin-2-yl)propanoic acid] registered a Kd below 100 nM.

Compound `Cc1ccccc1CNC(=O)Cn1c(CCC(=O)O)nc2c(Cl)cccc2c1=O` [compound 8] returned a Kd on USP16-UBD (USP16 25-185) [1] of 1800 ± 960 nM.

In the case of `O=C(O)CCc1nc2ccccc2c(=O)n1CC(=O)NCC1CCCCC1` [UBXXML9098], the Kd at USP16-UBD (USP16 25-185) [5] stood at 4.8 µM.

Regarding `COc1ccccc1CNC(=O)Cn1c(CCC(=O)O)nc2ccccc2c1=O` [UBXXML264], on USP16-UBD (USP16 25-185) [5], the Kd was 13 µM.

Turning to `C[C@H](NC(=O)Cn1c(CCC(=O)O)nc2c(Cl)cccc2c1=O)c1ccccc1F` [compound 12, (S)-3-(8-Chloro-3-(2-((1-(2-fluorophenyl)ethyl)amino)-2-oxoethyl)-4-oxo-3,4-dihydroquinazolin-2-yl)propanoic Acid], the Kd on USP16-UBD (USP16 25-185) [1] came out at 210 ± 30 nM; in assay [2], 50 ± 10 nM.

The record behind these values is article doi:10.1101/2025.10.23.684218v2, “Development of a dual chemical probe for the USP16 and HDAC6 zinc-finger ubiquitin-binding domain” (biorxiv, 2025).
